Results reported in US9265845B2, “Imaging methods using engineered integrin binding peptides” (The Board of Trustees of the Leland Stanford Junior …, priority 2006, dated 2016).
Entries after “also recorded” stand apart in the source; their conditions may differ.

Experiments:
α5β1 integrin = α5β1 integrin (Homo sapiens, UniProt P05556+P08648); assay: Competition of 125I-echistatin to detergent-solubilized plate-coated integrin; format: binding; details: 0.06 nM 125I echistatin, 5 nM and 50 nM peptide
Description: (§1) FIG. 10A through FIG. 10D is a series of histograms showing binding specificities to integrins αvβ3, αvβ5, α5β1, and αiibβ3 for engineered EETI-RGD peptides compared to controls. Error bars represent experiments performed in triplicate. Competition binding of 0.06 nM ^125I echistatin with 5 nM (black bars) and 50 nM (grey bars) unlabeled peptide to plate-coated integrins was measured. […] The engineered peptides have very little binding to αiibβ3 integrin.
(§2) This was done by competition of ^125I-echistatin to detergent-solubilized integrin receptors coated onto microtiter plates (see FIG. 10). […] This is consistent with previous studies which have shown αv integrin receptors can accommodate a wide range of RGD-containing cyclic structures. […] However, since α5β1 integrins are expressed on many tumors and are all involved in mediating angiogenesis and metastasis, a broad spectrum agent that targets all three integrins will be useful for diagnostic and therapeutic applications. With the exception of echistatin, all of the RGD-containing peptides bound weakly to the αiibβ3 receptor, showing the specificity of the present peptides for the αv and α5-containing integrin heterodimers. This characteristic is valuable for molecular imaging and therapeutic applications, since binding to αiibβ3 on platelet cells prevents blood clotting and would lead to non-specific in vivo effects.

αvβ3 integrin = αvβ3 integrin (Homo sapiens, UniProt P05106+P06756); assay: as above; format: binding; details: 0.06 nM 125I echistatin, 5 nM and 50 nM peptide
Description: as §1, §2

αvβ5 integrin = αvβ5 integrin (Homo sapiens, UniProt P06756+P18084); assay: as above; format: binding; details: 0.06 nM 125I echistatin, 5 nM and 50 nM peptide
Description: as §1, §2

U87MG glioblastoma cells [1] = assay: Blocking of U87MG cell adhesion to fibronectin-coated plates; format: cell-based
Source text: (§3) The present engineered peptides may be used in a variety of ways. If the peptides are attached to a surface, they may be used to attract/recruit cells to grow on the surface. For example, the present peptides may be applied to prosthetic devices, implants, bone grafts, and the like to promote tissue growth and healing at the site. They may be attached to culture dishes and promote attachment and differentiation of cells in culture. In addition, the present engineered peptides may be used to modulate cell binding to selected integrins such as α5β1, αvβ3 and αvβ5, particularly αvβ3, by adding the peptides to a cell culture to prevent cells expressing these integrins from adhering to a substrate. […] Also, the present 2.5F, 2.5D and 1.5B peptides were tested for blocking adhesion of U87MG glioblastoma cells to fibronectin-coated plates.
(§4) In another experiment, the ability of engineered knottin peptides to block U87MG cell adhesion to vitronectin- and fibronectin-coated microtiter plates. Vitronectin is a natural ligand for several integrins, including αvβ3 and αvβ5. The RGD-containing peptides were all able to inhibit U87MG cell adhesion to vitronectin-coated plates in a dose-responsive manner. […] Fibronectin also binds to several integrins, (including αvβ3 and α5β1), but the α5β1 integrin receptor is generally selective for fibronectin.

U87MG glioblastoma cells [2] = assay: Blocking of U87MG cell adhesion to vitronectin-coated plates; format: cell-based; details: vitronectin-coated plates
Source text: as §3, §4
Whether the engineered AgRP peptides could block vitronectin-mediated adhesion to the U87MG cells was tested using an analogous assay. […] The AgRP peptides may not effectively block U87MG adhesion compared to the K562-αvβ3 cells because the αvβ5 integrins co-expressed on the surface of the U87MG cells could also contribute to vitronectin-mediated adhesion and compensate for the loss of αvβ3 integrin function.

U87MG tumor = assay: MicroPET imaging and biodistribution of radiolabeled peptides in U87MG tumor-bearing mice; format: in vivo, mouse
Description: MicroPET imaging of tumor-bearing mice is performed on a microPET R4 rodent model scanner (Concorde Microsystems Inc, Knoxyille, Tenn.). U87MG tumor bearing mice are injected with PET imaging agent via the tail vein. At various times post injection, the mice are anesthetized with 2% isoflurane, and 10 min static scans are obtained. Images are reconstructed by a two-dimensional ordered expectation maximum subset algorithm as previously described. Regions of interest (ROI) are drawn over the tumor on decay corrected whole body images and ROI derived % injected dose per gram of tissue is determined. Statistical analysis is performed using the student's t-test for unpaired data. A 95% confidence level is used to determine statistical significance.
Female athymic mice bearing U87MG tumors were injected with 80-150 μCi of ^64Cu-DOTA-knottin 2.5D or 7-9 μCi of [^18F]-FB-E[knottin 2.5D]. Static images were taken at various timepoints post injection using a microPET R4 rodent model scanner (Concorde Microsystems Inc, Knoxyille, Tenn.). […] Uptake was also observed in the kidney as both probes cleared through the bladder.
Mice are sacrificed by exanguinations at various time points postinjection. Blood, tumor and the major organs and tissues are collected, wet-weighed and measured in a γ-counter. The % injected dose per gram is determined for each sample. For each mouse, radioactivity of the tissue samples is calibrated against a known aliquot of the injectate. Values are reported as the mean±standard deviation.
The following Table 10 quantifies the ^64Cu-DOTA knottin uptake by direct tissue sampling of the mice up to 24 hours post injection and is reported in % ID (percent injected dose)/gram. Similar results were obtained with [^18F]-FB-E[knottin 2.5D].
A U87MG glioblastoma xenograft mouse model was used. U87MG cells were maintained at 37° C. in a humidified atmosphere containing 5% CO2 in Dulbecco's modified eagle medium, 10% heat-inactivated fetal bovine serum, and penicillin-streptomycin (all from Invitrogen). Animal procedures were carried out according to a protocol by Stanford University Administrative Panels on Laboratory Animal Care. Female athymic nude mice (nu/nu), obtained at 4-6 weeks of age (Charles River Laboratories, Inc.), were injected subcutaneously in the right or left shoulder with 2×10^7 U87MG glioblastoma cells suspended in 100 μL of PBS. Mice were used for in vivo imaging studies when their tumors reached approximately 8 to 10 millimeters in diameter.
U87MG tumor-bearing mice (n=3 or more for each probe) were injected with ˜100 μCi of ^64Cu-DOTA-conjugated peptides via the tail vein and imaged with a microPET R4 rodent model scanner (Siemens Medical) using 3 or 5 min static scans. […] Images were reconstructed by a two dimensional ordered expectation maximum subset algorithm and calibrated as previously described (Wu, Y, Zhang, X, Xiong, Z, et al. microPET imaging of glioma integrin {alpha}v{beta}3 expression using (64)Cu-labeled tetrameric RGD peptide. J Nucl Med 2005; 46:1707-18). ROIs were drawn over the tumor on decay-corrected whole body images using ASIPro VM software (Siemens Medical). The mean counts per pixel per minute were obtained from the ROI and converted to counts per milliliter per minute with a calibration constant. ROIs were converted to counts/g/min, and % ID/g values were determined assuming a tissue density of 1 g/mL. No attenuation correction was performed.

Row | Compound | binding to α5β1 integrin, in words (α5β1 integrin) | binding to αvβ3 integrin, in words (αvβ3 integrin) | binding to αvβ5 integrin, in words (αvβ5 integrin) | blocking of U87MG cell adhesion to fibronectin, in words (U87MG glioblastoma cells [1]) | blocking of U87MG cell adhesion to vitronectin, in words (U87MG glioblastoma cells [2]) | liver uptake, in words (U87MG tumor; 64Cu-DOTA-labeled peptides, compared to 64Cu-DOTA-c(RGDyK)) | tumor/blood ratios, in words (U87MG tumor; PET studies, 4 h post injection, compared to 2.5D) | PET tumor targeting / imaging signal, in words (U87MG tumor; radiolabeled peptides, U87MG tumor-bearing mice)
1 | CC[C@H](C)[C@@H]1NC(=O)[C@H]([C@@H](C)O)NC(=O)[C@@H](NC(=O)CN)CSSC[C@@H]2NC(=O)CNC(=O)[C@H](C)NC(=O)[C@H](CC(C)C)NC(=O)[C@@H]3CSSC[C@@H](C(=O)NCC(=O)O)NC(=O)[C@H](Cc4ccccc4)NC(=O)CNC(=O)[C@H](CC(N)=O)NC(=O)[C@@H]4CCCN4C(=O)CNC(=O)[C@H](CSSC[C@H](NC(=O)[C@H](CCC(=O)O)NC(=O)[C@H](CO)NC(=O)[C@@H]4CCCN4C(=O)[C@H](C)NC(=O)[C@H](Cc4c[nH]c5ccccc45)NC(=O)[C@H](CC(=O)O)NC(=O)CNC(=O)[C@H](CCCNC(=N)N)NC(=O)CNC1=O)C(=O)N[C@@H](CO)C(=O)N[C@@H](CCC(N)=O)C(=O)N[C@@H](CC(=O)O)C(=O)N[C@@H](CO)C(=O)N[C@@H](CC(=O)O)C(=O)N3)NC(=O)[C@H](C(C)C)NC2=O [1.5B] | only minimal binding | strongest levels of binding | strongest levels of binding | only echistatin and polypeptide 2.5F blocked adhesion | – | – | – | –
2 | CC(C)C[C@@H]1NC(=O)[C@@H]2CSSC[C@@H](C(=O)NCC(=O)O)NC(=O)[C@H](Cc3ccccc3)NC(=O)CNC(=O)[C@H](CC(N)=O)NC(=O)[C@@H]3CCCN3C(=O)CNC(=O)[C@@H]3CSSC[C@H](NC(=O)[C@H]([C@@H](C)O)NC(=O)[C@H](CC(C)C)NC(=O)[C@@H]4CCCN4C(=O)[C@@H]4CCCN4C(=O)[C@H](CC(N)=O)NC(=O)[C@H](CC(=O)O)NC(=O)CNC(=O)[C@H](CCCNC(=N)N)NC(=O)[C@@H]4CCCN4C(=O)[C@H](CCCNC(=N)N)NC(=O)[C@@H]4CCCN4C(=O)[C@@H](NC(=O)CN)CSSC[C@H](NC(=O)CNC(=O)[C@H](C)NC1=O)C(=O)N[C@@H](C(C)C)C(=O)N3)C(=O)N[C@@H](CO)C(=O)N[C@@H](CCC(N)=O)C(=O)N[C@@H](CC(=O)O)C(=O)N[C@@H](CO)C(=O)N[C@@H](CC(=O)O)C(=O)N2 [2.5F] | binds with strong affinity | strongest levels of binding | strongest levels of binding | blocked adhesion; also recorded: able to block | blocked adhesion better than controls | lower liver uptake | much higher tumor/blood ratios | slower tumor washout compared to 2.5D
